# Test results taken from patent US12296053B2, “Nanomaterials comprising triols” (Beam Therapeutics Inc., priority 2022, dated 2025).
# Tests used:
# [1] = Encapsulation efficiency of LNP preparations (Ribogreen assay; Qubit, unlysed and lysed LNPs); format: physicochemical; details: LNP preparation with the ionizable lipid, ABE mRNA:sgRNA 1:1, except 7-1, 7-2, 7-6, 7-10 (unlysed and lysed LNPs, Qubit)
# Method: (§1) Lipid nanoparticle components were dissolved in 100% ethanol at specified lipid component molar ratios. mRNA encoding an adenine base editor and a chemically-modified sgRNA was dissolved at a mass ratio of 1:1 in 50 mM citrate, pH 4.0, resulting in a concentration of NA cargo of approximately 0.1 mg/mL.
# (§2) LNP preparations were formulated with molar ratios of 47.5% Ionizable Lipid: 40% Cholesterol: 2.5% PEG2000-DMG: 10% DSPC total lipid to NA molar ratio of 6 to 12.
# (§3) LNP preparations were formed by microfluidic mixing of the lipid and NA solutions using Precision Nanosystems NanoAssemblr Ignite series Instruments, according to the manufacturer's protocol.
# With the exception of LNPs comprising ionizable lipids 7-1, 7-2, 7-6, and 7-10, RNA concentration and encapsulation efficiency were determined by Ribogreen assay (BioTek Synergy LX plate reader). For LNPs comprising ionizable lipids 7-1, 7-2, 7-6, and 7-10, RNA concentration was determined by Qubit microRNA kit (for siRNA) or HS RNA kit (for mRNA) per manufacturer's instructions, and encapsulation efficiency was determined by measuring unlysed and lysed LNPs.
# ALAS1 target site = assay: Base editing in liver by LNP-delivered ABE mRNA and sgRNA, targeted deep sequencing; format: in vivo; details: LNP with the ionizable lipid, ABE mRNA + sgRNA targeting ALAS1 1:1; tail vein injection, Balb/c mice; 0.05 mg/kg; tissues four to six days post-dose
# Method: as §1, §2, §3
# (§4) A 3:1 ratio of aqueous to organic solvent was maintained during mixing using differential flow rates. After mixing, LNP preparations were collected and diluted in TBS (approximately 7:1 v/v), and further buffer exchange was conducted using dialysis in TBS at 4° C. for 8 to 24 hours against a 20 kDa filter. After this initial dialysis, each individual LNP preparation was characterized via dynamic light scattering (DLS) to measure size and polydispersity. pKa of a subpopulation of LNP preparations was measured via TNS assay.
# Male Balb/C mice aged approximately 8-12 weeks were used in the experiments described herein. […]
# Age-matched mice were also used to administer vehicle (1×TBS) via tail vein injection as a control. Four to six days post-dose, tissues including liver, spleen, and bone marrow were collected. Base editing was determined by performing targeted deep sequencing analysis at the ALAS1 target site using extracted genomic DNA. Genomic DNA was isolated and fragmented and adapter-ligated using the Nextera DNA Flex Library Prep Kit (Illumina) using the 96-well plate Nextera indexing primers (Illumina), according to the manufacturer's instructions. Library size and concentration was confirmed by Fragment Analyzer (Agilent) and analyzed for whole genome sequencing using an Illumina HiSeq.
# [2] = LNP hydrodynamic diameter and polydispersity index by dynamic light scattering (DLS); format: physicochemical; details: for Diameter (nm): hydrodynamic diameter of the LNP preparation with the ionizable lipid; for PDI: polydispersity index of the LNP preparation with the ionizable lipid
# Method: as §4
# DLS-LNP preparation hydrodynamic diameter and polydispersity index (PDI) was measured using high throughput dynamic light scattering (DLS) (DynaPro plate reader II, Wyatt). LNP preparations were diluted 1×PBS to an appropriate concentration and analyzed.
SMILES,Encapsulation Efficiency (%) [1] [%],Diameter (nm) [2] [nm],PDI [2],% Editing in Liver (0.05 mpk) (ALAS1 target site) [%]
"CC/C=C\CCCCOC(CCC(=O)OCC(COC(=O)CCCCCC(=O)OCCC(CCCCC)CCCCC)COC(=O)CCC(CC)OC(=O)NCCN1CCCC1)OCCCC/C=C\CC (centres unmarked) [Compound 7-24, 1-(3-((4,4-bis(((Z)-oct-5-en-1-yl)oxy)butanoyl)oxy)-2-(((4-(((2-(pyrrolidin-1-yl)ethyl)carbamoyl)oxy)hexanoyl)oxy)methyl)propyl) 7-(3-pentyloctyl) heptanedioate]",85.9,84.01,0.09,
"CC/C=C\CCCCOC(CCC(=O)OCC(COC(=O)CCCCCCC/C=C\C/C=C\CCCCC)COC(=O)CCC(CCCCCC)OC(=O)OCCCN(CC)CC)OCCCC/C=C\CC (centres unmarked) [Compound 7-10, 16-(((4,4-bis(((Z)-oct-5-en-1-yl)oxy)butanoyl)oxy)methyl)-3-ethyl-10-hexyl-8,13-dioxo-7,9,14-trioxa-3-azaheptadecan-17-yl (9Z,12Z)-octadeca-9,12-dienoate]",88.2,76.95,0.09,
"CC/C=C\CCCCOC(CCC(=O)OCC(COC(=O)CCCCCCC/C=C\C/C=C\CCCCC)COC(=O)CCC(CCCCCC)OC(=O)NCCN1CCCC1)OCCCC/C=C\CC (centres unmarked) [Compound 7-2, 3-((4,4-bis(((Z)-oct-5-en-1-yl)oxy)butanoyl)oxy)-2-(((4-(((2-(pyrrolidin-1-yl)ethyl)carbamoyl)oxy)decanoyl)oxy)methyl)propyl (9Z,12Z)-octadeca-9,12-dienoate]",97.8,43.80,0.04,
"CCCCC/C=C\C/C=C\CCCCCCCC(=O)OCC(COC(=O)CCC(CCCCCC)OC(=O)NCCN1CCCC1)COC(=O)CCC(OCCCCCCCC)OCCCCCCCC (centres unmarked) [Compound 7-1, 3-((4,4-bis(octyloxy)butanoyl)oxy)-2-(((4-(((2-(pyrrolidin-1-yl)ethyl)carbamoyl)oxy)decanoyl)oxy)methyl)propyl (9Z,12Z)-octadeca-9,12-dienoate]",97.5,64.70,0.14,
"CC/C=C\CCCCOC(CCC(=O)OCC(COC(=O)CCCCCCC/C=C\C/C=C\CCCCC)COC(=O)CCC(CCCCCC)OC(=O)OCCCN(C)C)OCCCC/C=C\CC (centres unmarked) [Compound 7-3, 15-(((4,4-bis(((Z)-oct-5-en-1-yl)oxy)butanoyl)oxy)methyl)-9-hexyl-2-methyl-7,12-dioxo-6,8,13-trioxa-2-azahexadecan-16-yl (9Z,12Z)-octadeca-9,12-dienoate]",19.8,85.72,0.72,
"CC/C=C\CCCCOC(CCC(=O)OCC(COC(=O)CCCCCCOC(=O)C(CCCC)CCCCCC)COC(=O)CCC(CCCCCC)OC(=O)NCCN(C)CC)OCCCC/C=C\CC (centres unmarked) [Compound 7-43, 3-((4,4-bis(((Z)-oct-5-en-1-yl)oxy)butanoyl)oxy)-2-(((7-((2-butyloctanoyl)oxy)heptanoyl)oxy)methyl)propyl 4-(((2-(ethyl(methyl)amino)ethyl)carbamoyl)oxy)decanoate]",89.2,114.2,0.11,
"CC/C=C\CCCCOC(CCC(=O)OCC(COC(=O)CCCCCCC/C=C\C/C=C\CCCCC)COC(=O)OCC(CCCCCC)OC(=O)NCCN1CCCC1)OCCCC/C=C\CC (centres unmarked) [Compound 7-5, 12-(((4,4-bis(((Z)-oct-5-en-1-yl)oxy)butanoyl)oxy)methyl)-6-hexyl-4,9-dioxo-1-(pyrrolidin-1-yl)-5,8,10-trioxa-3-azatridecan-13-yl (9Z,12Z)-octadeca-9,12-dienoate]",87.2,78.39,0.09,

# The next lines start with results.
Encapsulation Efficiency (%) [1] [%],Diameter (nm) [2] [nm],PDI [2],SMILES,% Editing in Liver (0.05 mpk) (ALAS1 target site) [%]
96.3,57,0.06,"CC/C=C\CCCCOC(CCC(=O)OCC(COC(=O)CCCCCCOC(=O)C(CCCC)CCCCCC)COC(=O)CCC(CCCCCC)OC(=O)CCCN1CCCC1)OCCCC/C=C\CC (centres unmarked) [Compound 7-49, 3-((4,4-bis(((Z)-oct-5-en-1-yl)oxy)butanoyl)oxy)-2-(((7-((2-butyloctanoyl)oxy)heptanoyl)oxy)methyl)propyl 4-((4-(pyrrolidin-1-yl)butanoyl)oxy)decanoate]",6.6
96.6,51.15,0.08,"CC/C=C\CCCCOC(CCC(=O)OCC(COC(=O)CCCCCCOC(=O)C(CCCC)CCCCCC)COC(=O)CCC(CCCCCCCC)OC(=O)NCCN1CCCC1)OCCCC/C=C\CC (centres unmarked) [Compound 7-51, 3-((4,4-bis(((Z)-oct-5-en-1-yl)oxy)butanoyl)oxy)-2-(((7-((2-butyloctanoyl)oxy)heptanoyl)oxy)methyl)propyl 4-(((2-(pyrrolidin-1-yl)ethyl)carbamoyl)oxy)dodecanoate]",1.0
99.2,74.80,0.09,"CC/C=C\CCCCOC(CCC(=O)OCC(COC(=O)CCCCCCOC(=O)C(CCCC)CCCCCC)COC(=O)CCC(C)OC(=O)NCCN1CCCC1)OCCCC/C=C\CC (centres unmarked) [Compound 7-28, 12-(((4,4-bis(((Z)-oct-5-en-1-yl)oxy)butanoyl)oxy)methyl)-6-methyl-4,9,15-trioxo-1-(pyrrolidin-1-yl)-5,10,14-trioxa-3-azahenicosan-21-yl 2-butyloctanoate]",
99.2,83.43,0.03,"CC/C=C\CCCCOC(CCC(=O)OCC(COC(=O)CCCCCCOC(=O)C(CCCC)CCCCCC)COC(=O)CCC(CCC)OC(=O)NCCN1CCCC1)OCCCC/C=C\CC (centres unmarked) [Compound 7-21, 12-(((4,4-bis(((Z)-oct-5-en-1-yl)oxy)butanoyl)oxy)methyl)-4,9,15-trioxo-6-propyl-1-(pyrrolidin-1-yl)-5,10,14-trioxa-3-azahenicosan-21-yl 2-butyloctanoate]",
99.4,84.26,0.06,"CC/C=C\CCCCOC(CCC(=O)OCC(COC(=O)CCCCCCOC(=O)C(CCCC)CCCCCC)COC(=O)CCC(CC)OC(=O)NCCN1CCCC1)OCCCC/C=C\CC (centres unmarked) [Compound 7-20, 12-(((4,4-bis(((Z)-oct-5-en-1-yl)oxy)butanoyl)oxy)methyl)-6-ethyl-4,9,15-trioxo-1-(pyrrolidin-1-yl)-5,10,14-trioxa-3-azahenicosan-21-yl 2-butyloctanoate]",
98.5,60.05,0.11,"CC/C=C\CCCCOC(CCC(=O)OCC(COC(=O)CCCCCC(=O)OCCC(CCCCC)CCCCC)COC(=O)CCC(CCCC)OC(=O)NCCN1CCCC1)OCCCC/C=C\CC (centres unmarked) [Compound 7-26, 1-(3-((4,4-bis(((Z)-oct-5-en-1-yl)oxy)butanoyl)oxy)-2-(((4-(((2-(pyrrolidin-1-yl)ethyl)carbamoyl)oxy)octanoyl)oxy)methyl)propyl) 7-(3-pentyloctyl) heptanedioate]",
95.0,66.85,0.06,"CC/C=C\CCCCOC(CCC(=O)OCC(COC(=O)CCCCCCOC(=O)C(CCCC)CCCCCC)COC(=O)CCC(CCCCCC)OC(=O)NCCN1CCCC1)OCCCC/C=C\CC (centres unmarked) [Compound 7-7, 3-((4,4-bis(((Z)-oct-5-en-1-yl)oxy)butanoyl)oxy)-2-(((7-((2-butyloctanoyl)oxy)heptanoyl)oxy)methyl)propyl 4-(((2-(pyrrolidin-1-yl)ethyl)carbamoyl)oxy)decanoate]",
91.3,85.01,0.08,"CC/C=C\CCCCOC(CCC(=O)OCC(COC(=O)CCCCCCCOC(=O)C(CCCC)CCCCCC)COC(=O)CCC(CCCCCC)OC(=O)NCCN1CCCC1)OCCCC/C=C\CC (centres unmarked) [Compound 7-6, 3-((4,4-bis(((Z)-oct-5-en-1-yl)oxy)butanoyl)oxy)-2-(((8-((2-butyloctanoyl)oxy)octanoyl)oxy)methyl)propyl 4-(((2-(pyrrolidin-1-yl)ethyl)carbamoyl)oxy)decanoate]",
